Measured values from patent US6406708B1, “Therapeutic compositions” (Interhealth AB, priority 1998, dated 2002).

Conditions: 0.15% of sorbic acid in squalane/cyclodextrin composition

Question: With `C/C=C/C=C/C(=O)O` [sorbic acid] as the compound, how does the anti-acne effect read?
Answer: Its anti-acne effect is “does not give any anti-acne effect”.
